The values that follow come from US20250295762A1, “COMPOSITE BIOACTIVE COMPOSITIONS AND APPLICATIONS THEREOF” (THE UNIVERSITY OF NORTH CAROLINA AT CHAPEL HILL, priority 2022, published 2025).

The test system of this assay is 3T3 fibroblasts. The experiment in a line: Cell viability by MTT assay in fibroblasts. The assay is classed as cell-based. To be noted: 24 h; for IC50: Fibroblast, read-out: 50% Inhibitory Concentration (IC50). From the text: All cell lines (RAW 264.7 murine macrophages, DC2.4 dendritic cells, and 3T3 fibroblasts; ATCC, Manassas, VA) were maintained according to ATCC guidelines. B3Z T cells were obtained from Dr. Nilabh Shastri (Johns Hopkins) and maintained and used as previously outlined. See, Broaders, K. E.; Cohen, J. A.; Beaudette, T. T.; Bachelder, E. M.; Frechet, J. M., Acetalated dextran is a chemically and biologically tunable material for particulate immunotherapy. Proc Natl Acad Sci USA 2009, 106 (14), 5497-502. Cell viability was determined with an MTT assay, as previously described. See, Chen, N.; Collier, M. A.; Gallovic, M. D.; Collins, G. C.; Sanchez, C. C.; Fernandes, E. Q.; Bachelder, E. M.; Ainslie, K. M., Degradation of acetalated dextran can be broadly tuned based on cyclic acetal coverage and molecular weight. Int J Pharm 2016, 512 (1), 147-157.

Structures are written as SMILES. In brackets after ≈: the same amount, converted by molar mass.

For `Cc1ncc[nH]1` [2-methylimidazole], the IC50 is about 1000 µg/mL (≈ 12.2 mM). `NCCC(=O)N[C@@H](Cc1cnc[nH]1)C(=O)O` [L-carnosine]: the IC50 is over 1000 µg/mL. With `CC(=O)[O-].CC(=O)[O-].[Zn+2]` [zinc acetate dihydrate], the “50% Inhibitory Concentration (IC50)” value is 16.0 ± 1.0 µg/mL. Same read-out and setting: in the case of `O.O.O.O.O.O.O=[N+]([O-])[O-].O=[N+]([O-])[O-].[Zn+2]` [zinc nitrate hexahydrate] it was 25.8 ± 2.1 µg/mL.
